Reference: paper PMC11033537 (Iranian Journal of Parasitology, 2024)
≈ marks a conversion by molar mass, not a printed value. Read-outs that look alike come from different tables or passages of the source.

Key:
Plasmodium falciparum = conditions: cited from earlier work; for antimalarial activity: among 20 nature identical essential oil constituents
[1] = test system: Trichomonas vaginalis cells, TVH1 strain; format: cell-based; conditions: for inhibition at 3.9 µg/mL / inhibition at 7.8 µg/mL / inhibition at 15.6 µg/mL / inhibition at 31.2 µg/mL / inhibition at 62.5 µg/mL / inhibition at 250 µg/mL / inhibition at 0.2 µg/mL / inhibition at 0.4 µg/mL / inhibition at 0.8 µg/mL / inhibition at 1.6 µg/mL / inhibition at 3.1 µg/mL / inhibition at 6.2 µg/mL: read-out: Growth inhibition percent (Mean ± SD)
[2] = test system: Trichomonas vaginalis cells, TVH1 strain; experiment: Annexin V/PI apoptosis assay by flow cytometry; format: cell-based; conditions: sub-MLC concentration, 24 hours
Vero cells = experiment: MTT cytotoxicity assay; format: cell-based; conditions: for CC50: Vero cells
MTT cytotoxicity assay = format: cell-based; conditions: African green monkey, Vero cells
[3] = test system: promastigotes of L. amazonensis; conditions: cited from earlier work
[4] = test system: intramacrophagic amastigotes of L. amazonensis; conditions: cited from earlier work

C=CC(C)(O)CCC=C(C)CCC=C(C)C (mixture of isomers) [nerolidol]
antimalarial activity (Plasmodium falciparum): most potent antimalarial activity

Tannic acid
Growth inhibition percent (Mean ± SD) ([1]; 62.5 μg/ml, 12 hours): 1.4 ± 5.2% | Growth inhibition percent (Mean ± SD) ([1]; 62.5 μg/ml, 24 hours): 4.3 ± 4.9% | Growth inhibition percent (Mean ± SD) ([1]; 62.5 μg/ml, 48 hours): 21.1 ± 6.2% | Growth inhibition percent (Mean ± SD) ([1]; 250 μg/ml, 12 hours): 13.4 ± 8.3% | Growth inhibition percent (Mean ± SD) ([1]; 250 μg/ml, 24 hours): 26.4 ± 3.9% | Growth inhibition percent (Mean ± SD) ([1]; 250 μg/ml, 48 hours): 71.5 ± 6.8% | Growth inhibition percent (Mean ± SD) ([1]; 500 μg/ml, 12 hours): 16.9 ± 5.2% | Growth inhibition percent (Mean ± SD) ([1]; 500 μg/ml, 24 hours): 33.8 ± 4.8% | Growth inhibition percent (Mean ± SD) ([1]; 500 μg/ml, 48 hours): 74.9 ± 5.1% | Growth inhibition percent (Mean ± SD) ([1]; 1000 μg/ml, 12 hours): 19.8 ± 6.7% | Growth inhibition percent (Mean ± SD) ([1]; 1000 μg/ml, 24 hours): 59.9 ± 6.2% | Growth inhibition percent (Mean ± SD) ([1]; 1000 μg/ml, 48 hours): 87.6 ± 4.4% | Growth inhibition percent (Mean ± SD) ([1]; 2000 μg/ml, 12 hours): 78.8 ± 5.1% | Growth inhibition percent (Mean ± SD) ([1]; 2000 μg/ml, 24 hours): 80.4 ± 3.8% | Growth inhibition percent (Mean ± SD) ([1]; 2000 μg/ml, 48 hours): 100 ± 0.0% | Growth inhibition percent (Mean ± SD) ([1]; 4000 μg/ml, 12 hours): 100 ± 0.0% | Growth inhibition percent (Mean ± SD) ([1]; 4000 μg/ml, 24 hours): 100 ± 0.0% | Growth inhibition percent (Mean ± SD) ([1]; 4000 μg/ml, 48 hours): 100 ± 0.0% | IC50 ([1]; 12 hours incubation): 1398 µg/mL | MLC (minimum lethal concentration) ([1]; 12 hours incubation): 4000 µg/mL | IC50 ([1]; 24 hours incubation): 689 µg/mL | MLC (minimum lethal concentration) ([1]; 24 hours incubation): 4000 µg/mL | IC50 ([1]; 48 hours incubation): 140 µg/mL | MLC (minimum lethal concentration) ([1]; 48 hours incubation): 2000 µg/mL | mean IC50 ([1]; average of 12, 24 and 48 hours): 742.3 µg/mL | necrotic effect [2]: 31.9% | CC50 (Vero cells; 12 hours): 747 µg/mL | CC50 (Vero cells; 24 hours): 677 µg/mL | CC50 (Vero cells; 48 hours): 473 µg/mL

CC1=CCC2CC1C2(C)C (stereo not drawn) [α-Pinene]
MLC (minimum lethal concentration) ([1]; 12 hours incubation): 250 µg/mL (≈ 1840 µM) | MLC (minimum lethal concentration) ([1]; 24 hours incubation): 125 µg/mL (≈ 918 µM) | MLC (minimum lethal concentration) ([1]; 48 hours incubation): 125 µg/mL (≈ 918 µM) | IC50 ([1]; Trichomonas vaginalis, 12 h): 38.9 µg/mL (≈ 286 µM) | inhibition at 3.9 µg/mL ([1]; Trichomonas vaginalis, 12 h): 21.4 ± 7.6% | inhibition at 7.8 µg/mL ([1]; Trichomonas vaginalis, 12 h): 26.3 ± 5.5% | inhibition at 15.6 µg/mL ([1]; Trichomonas vaginalis, 12 h): 40.2 ± 6.3% | inhibition at 31.2 µg/mL ([1]; Trichomonas vaginalis, 12 h): 48.5 ± 4.1% | inhibition at 62.5 µg/mL ([1]; Trichomonas vaginalis, 12 h): 54.5 ± 3.3% | inhibition at 250 µg/mL ([1]; Trichomonas vaginalis, 12 h): 100% | IC50 ([1]; Trichomonas vaginalis, 24 h): 30.2 µg/mL (≈ 222 µM) | inhibition at 3.9 µg/mL ([1]; Trichomonas vaginalis, 24 h): 15.5 ± 5.8% | inhibition at 7.8 µg/mL ([1]; Trichomonas vaginalis, 24 h): 29.2 ± 6.3% | inhibition at 15.6 µg/mL ([1]; Trichomonas vaginalis, 24 h): 69.3 ± 7.7% | inhibition at 31.2 µg/mL ([1]; Trichomonas vaginalis, 24 h): 76.5 ± 8.8% | inhibition at 62.5 µg/mL ([1]; Trichomonas vaginalis, 24 h): 80.9 ± 6.4% | inhibition at 250 µg/mL ([1]; Trichomonas vaginalis, 24 h): 100% | IC50 ([1]; Trichomonas vaginalis, 48 h): 22.9 µg/mL (≈ 168 µM) | inhibition at 3.9 µg/mL ([1]; Trichomonas vaginalis, 48 h): 10.2 ± 6.5% | inhibition at 7.8 µg/mL ([1]; Trichomonas vaginalis, 48 h): 45.3 ± 4.7% | inhibition at 15.6 µg/mL ([1]; Trichomonas vaginalis, 48 h): 74.3 ± 5.2% | inhibition at 31.2 µg/mL ([1]; Trichomonas vaginalis, 48 h): 84.1 ± 4.3% | inhibition at 62.5 µg/mL ([1]; Trichomonas vaginalis, 48 h): 96.7 ± 6.2% | inhibition at 250 µg/mL ([1]; Trichomonas vaginalis, 48 h): 100% | IC50 ([1]; Trichomonas vaginalis, read-out: IC50 (range over incubation times)): 22.9 to 38.9 µg/mL (≈ 168 to 286 µM) | IC50 ([1]; Trichomonas vaginalis, read-out: mean IC50): 30.7 µg/mL (≈ 225 µM) | necrotic effect [2]: 50.5% | CC50 at 12 h (MTT cytotoxicity assay): 226 µg/mL (≈ 1660 µM) | CC50 at 24 h (MTT cytotoxicity assay): 209 µg/mL (≈ 1530 µM) | CC50 at 48 h (MTT cytotoxicity assay): 116 µg/mL (≈ 851 µM) | SI (selectivity index = CC50/IC50) (Vero cells; Vero CC50 / Trichomonas IC50, 12 hours): 5.8 | SI (selectivity index = CC50/IC50) (Vero cells; Vero CC50 / Trichomonas IC50, 24 hours): 6.9 | SI (selectivity index = CC50/IC50) (Vero cells; Vero CC50 / Trichomonas IC50, 48 hours): 5 | average selectivity index (SI) (Vero cells; average of 12, 24 and 48 hours): 5.9 | antimalarial activity (Plasmodium falciparum): most potent antimalarial activity | IC50 (Plasmodium falciparum; read-out: IC 50 (growth inhibition)): 1200 ± 200 nM | IC50 [3]: 19.7 µg/mL (≈ 145 µM) | IC50 (cytotoxic effect) [4]: 15.6 µg/mL (≈ 115 µM)

CC(C)=C1CC[C@@H](C)CC1=O [pulegone]
antimalarial activity (Plasmodium falciparum): most potent antimalarial activity

C=CC(C)(CCC=C(C)C)OC(C)=O (stereo not shown) [linalyl acetate]
antimalarial activity (Plasmodium falciparum): most potent antimalarial activity

Cc1ncc([N+](=O)[O-])n1CCO [Metronidazole, reference compound]
MLC (minimum lethal concentration) ([1]; 12 hours incubation): 25 µg/mL (≈ 146 µM) | MLC (minimum lethal concentration) ([1]; 48 hours incubation): 6.25 µg/mL (≈ 36.5 µM) | drug susceptibility of the isolate ([1]; TVH1 isolate): sensitive | inhibition at 0.2 µg/mL ([1]; Trichomonas vaginalis, 12 h): 4.9 ± 3.9% | inhibition at 0.4 µg/mL ([1]; Trichomonas vaginalis, 12 h): 19.3 ± 5.5% | inhibition at 0.8 µg/mL ([1]; Trichomonas vaginalis, 12 h): 38.9 ± 7.1% | inhibition at 1.6 µg/mL ([1]; Trichomonas vaginalis, 12 h): 59.2 ± 8.6% | inhibition at 3.1 µg/mL ([1]; Trichomonas vaginalis, 12 h): 64.6 ± 5.3% | inhibition at 6.2 µg/mL ([1]; Trichomonas vaginalis, 12 h): 77.5 ± 6.3% | inhibition at 0.2 µg/mL ([1]; Trichomonas vaginalis, 24 h): 10.3 ± 6.7% | inhibition at 0.4 µg/mL ([1]; Trichomonas vaginalis, 24 h): 32.8 ± 2.6% | inhibition at 0.8 µg/mL ([1]; Trichomonas vaginalis, 24 h): 55 ± 4.6% | inhibition at 1.6 µg/mL ([1]; Trichomonas vaginalis, 24 h): 72.6 ± 2.3% | inhibition at 3.1 µg/mL ([1]; Trichomonas vaginalis, 24 h): 84.6 ± 2.7% | inhibition at 6.2 µg/mL ([1]; Trichomonas vaginalis, 24 h): 93.4 ± 0.6% | inhibition at 0.2 µg/mL ([1]; Trichomonas vaginalis, 48 h): 25.9 ± 4.8% | inhibition at 0.4 µg/mL ([1]; Trichomonas vaginalis, 48 h): 44 ± 2.2% | inhibition at 0.8 µg/mL ([1]; Trichomonas vaginalis, 48 h): 73.4 ± 2.5% | inhibition at 1.6 µg/mL ([1]; Trichomonas vaginalis, 48 h): 91.5 ± 2.3% | inhibition at 3.1 µg/mL ([1]; Trichomonas vaginalis, 48 h): 98.2 ± 0.4% | inhibition at 6.2 µg/mL ([1]; Trichomonas vaginalis, 48 h): 100%
